{
  "source": "ChEMBL document CHEMBL4765314",
  "about": "“Rational design and biological evaluation of gemfibrozil modified Xenopus GLP-1 derivatives as long-acting hypoglycemic agents” (Eur J Med Chem, 2020)",
  "key": {"Albumin": {"target": "Albumin (Homo sapiens, UniProt P02768)", "sequence (P02768 whole entry)": "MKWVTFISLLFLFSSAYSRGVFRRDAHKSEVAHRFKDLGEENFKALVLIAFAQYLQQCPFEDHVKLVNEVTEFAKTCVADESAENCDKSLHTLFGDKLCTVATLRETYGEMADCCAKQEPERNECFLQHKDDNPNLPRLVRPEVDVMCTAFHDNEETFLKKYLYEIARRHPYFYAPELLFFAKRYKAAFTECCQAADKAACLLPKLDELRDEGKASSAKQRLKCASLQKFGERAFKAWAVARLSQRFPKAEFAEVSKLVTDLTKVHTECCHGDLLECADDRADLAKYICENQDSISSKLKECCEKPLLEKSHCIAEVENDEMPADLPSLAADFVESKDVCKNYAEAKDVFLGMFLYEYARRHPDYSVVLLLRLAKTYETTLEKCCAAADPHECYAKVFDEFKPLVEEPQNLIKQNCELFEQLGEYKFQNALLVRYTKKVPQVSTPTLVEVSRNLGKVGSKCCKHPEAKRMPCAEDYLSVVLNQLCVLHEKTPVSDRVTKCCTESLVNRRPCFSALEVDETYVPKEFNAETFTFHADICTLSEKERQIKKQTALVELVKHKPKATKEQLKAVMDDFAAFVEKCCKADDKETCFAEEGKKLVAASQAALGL", "assay": "Binding affinity to human serum albumin assessed as retention factor by HPAC method", "format": "ADME"}, "Mus musculus [1]": {"tested_on": "Mus musculus", "assay": "Hypoglycemic activity in 12 hrs fasted ICR mouse assessed as reduction in blood glucose level at 25 nmol/kg, ip dosed 30 mins before glucose challenge measured up to 120 mins by OGTT method", "format": "functional, organism-based", "details": "time 150.0 min"}, "[2]": {"target": "Glucagon-like peptide 1 receptor (Homo sapiens, UniProt P43220)", "sequence (P43220 whole entry)": "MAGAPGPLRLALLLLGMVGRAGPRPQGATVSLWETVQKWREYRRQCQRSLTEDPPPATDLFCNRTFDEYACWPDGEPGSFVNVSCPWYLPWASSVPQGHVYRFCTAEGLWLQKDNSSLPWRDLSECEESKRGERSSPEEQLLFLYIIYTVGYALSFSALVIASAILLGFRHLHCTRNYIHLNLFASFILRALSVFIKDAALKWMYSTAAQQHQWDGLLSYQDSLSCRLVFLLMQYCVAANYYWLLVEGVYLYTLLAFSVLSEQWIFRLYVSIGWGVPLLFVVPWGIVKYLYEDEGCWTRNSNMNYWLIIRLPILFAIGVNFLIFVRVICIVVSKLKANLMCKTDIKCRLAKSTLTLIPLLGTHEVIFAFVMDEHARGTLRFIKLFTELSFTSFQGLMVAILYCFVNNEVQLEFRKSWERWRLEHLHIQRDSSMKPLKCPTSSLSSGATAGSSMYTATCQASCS", "assay": "Agonist activity at human GLP-1R expressed in HEK293 cells assessed as stimulation of cAMP accumulation incubated for 60 mins by HTRF assay", "format": "functional, cell-based"}, "[3]": {"assay": "Stability in Sprague-Dawley rat plasma assessed as half life at 1000 ng/ml measured up to 48 hrs under shaking condition by LC-MS/MS analysis", "format": "ADME, cell-free"}, "Mus musculus [4]": {"tested_on": "Mus musculus", "assay": "Hypoglycemic activity in non-fasted db/db […] mouse assessed as reduction in blood glucose level at 25 nmol/kg, ip dosed 30 mins before glucose challenge measured up to 120 mins by OGTT method", "format": "functional, organism-based"}, "[5]": {"assay": "Hepatotoxicity in ICR mouse assessed as effect on alanine aminotransferase level at 100 nmol/kg, sc administered once daily for 2 weeks", "format": "toxicity, organism-based", "details": "in vivo, 336 h"}, "[6]": {"assay": "Hepatotoxicity in ICR mouse assessed as effect on aspartate aminotransferase level at 100 nmol/kg, sc administered once daily for 2 weeks", "format": "toxicity, organism-based", "details": "in vivo, 336 h"}, "[7]": {"assay": "Renal toxicity in ICR mouse assessed as effect on blood urea nitrogen level at 100 nmol/kg, sc administered once daily for 2 weeks", "format": "organism-based", "details": "in vivo, 336 h"}, "[8]": {"assay": "Renal toxicity in ICR mouse assessed as effect on serum creatinine level at 100 nmol/kg, sc administered once daily for 2 weeks", "format": "organism-based", "details": "in vivo, 336 h"}, "Mus musculus [9]": {"tested_on": "Mus musculus", "assay": "Reduction in body fat content in C57BL/6 mouse model of high-fat diet induced obesity at 25 nmol/kg, sc administered every two days for 21 days relative to control", "format": "functional, organism-based", "parameters": "scale not given: the % may be the effect or the level left", "details": "time 21.0 day"}, "Mus musculus [10]": {"tested_on": "Mus musculus", "assay": "Reduction in HbA1c level in db/db mouse at 25 nmol/kg, sc administered every two days for 42 days by OGTT", "format": "functional, organism-based", "details": "time 42.0 day"}, "Mus musculus [11]": {"tested_on": "Mus musculus", "assay": "Hypoglycemic activity in normal chow diet fed C57BL/6 mouse assessed as fasting blood glucose at 25 nmol/kg, sc administered every two for 21 days", "format": "functional, organism-based", "details": "time 21.0 day"}, "Mus musculus [12]": {"tested_on": "Mus musculus", "assay": "Reduction in serum total cholesterol in C57BL/6 mouse model of high-fat diet induced obesity at 25 nmol/kg, sc administered every two days for 21 days", "format": "functional, organism-based", "details": "time 21.0 day"}, "Mus musculus [13]": {"tested_on": "Mus musculus", "assay": "Inhibition of solid-phase gastric emptying in 12 hrs fasted ICR mouse assessed reduction in gastric emptying rate at 25 nmol/kg, ip allowed for food intake 1 hrs and measured after 4 hrs […]", "format": "functional", "parameters": "scale not given: the % may be the effect or the level left"}, "Mus musculus [14]": {"tested_on": "Mus musculus", "assay": "Effect in normal chow diet fed C57BL/6 mouse assessed as reduction in body weight increase at 25 nmol/kg, sc administered every two days for 21 days (reference value: 10.8%)", "format": "functional, organism-based", "parameters": "scale not given: the % may be the effect or the level left", "details": "time 21.0 day"}, "Mus musculus [15]": {"tested_on": "Mus musculus", "assay": "Improvement in glucose tolerance in standard chow diet fed C57BL/6 mouse at 25 nmol/kg, sc administered every 2 days for 21 days", "format": "functional, organism-based", "details": "time 21.0 day"}, "Mus musculus [16]": {"tested_on": "Mus musculus", "assay": "Hypoglycemic activity in 16 hrs fasted db/db mouse assessed as reduction in blood glucose level at 25 nmol/kg, ip treated 30 mins before glucose challenge and measured at 0 to 24 hrs by multiple OGTT", "format": "functional, organism-based", "details": "time 1470.0 min"}, "Mus musculus [17]": {"tested_on": "Mus musculus", "assay": "Reduction in serum triglyceride in C57BL/6 mouse model of high-fat diet induced obesity at 25 nmol/kg, sc administered every two days for 21 days", "format": "functional, organism-based", "details": "time 21.0 day"}, "Mus musculus [18]": {"tested_on": "Mus musculus", "assay": "Increase in serum HDL level in C57BL/6 mouse model of high-fat diet induced obesity at 25 nmol/kg, sc administered every two days for 21 days", "format": "functional, organism-based", "details": "time 21.0 day"}, "Mus musculus [19]": {"tested_on": "Mus musculus", "assay": "Anorectic effect in normal chow diet fed C57BL/6 mouse assessed as reduction in food intake at 25 nmol/kg, sc administered every two for 21 days", "format": "functional, organism-based", "details": "time 21.0 day"}, "Mus musculus [20]": {"tested_on": "Mus musculus", "assay": "Reduction in body weight in C57BL/6 mouse model of diet induced obesity at 25 nmol/kg, sc administered every two days for 21 days relative to control", "format": "functional, organism-based", "parameters": "scale not given: the % may be the effect or the level left", "details": "time 21.0 day"}, "Mus musculus [21]": {"tested_on": "Mus musculus", "assay": "Improvement in glucose tolerance in db/db mouse assessed as time for superior hypoglycemic effect by measuring glucose AUC at 25 nmol/kg, sc administered twice daily for 42 days by OGTT", "format": "functional, organism-based", "details": "time 42.0 day"}, "Mus musculus [22]": {"tested_on": "Mus musculus", "assay": "Improvement in glucose tolerance in db/db mouse at 25 nmol/kg, sc administered every 2 days for 42 days by OGTT", "format": "functional, organism-based", "details": "time 42.0 day"}, "Mus musculus [23]": {"tested_on": "Mus musculus", "assay": "Inhibition of fat mass gain in normal chow diet fed C57BL/6 mouse at 25 nmol/kg, sc administered every two days for 21 days", "format": "functional, organism-based", "details": "time 21.0 day"}, "Mus musculus [24]": {"tested_on": "Mus musculus", "assay": "Reduction in serum LDL level in C57BL/6 mouse model of high-fat diet induced obesity at 25 nmol/kg, sc administered every two days for 21 days", "format": "functional, organism-based", "details": "time 21.0 day"}},
  "note": "Active and inactive are the calls of the source. The rule behind the calls is not given here. Starred links: 1 amine or outer side, 2 acyl side, 3 side chain; linkers in the order of their positions; H or OH if unused. Non-standard residues stand in square brackets, D forms with d. Groups on a side chain read outwards from the residue. ξ: configuration not given here. *: point of attachment. X1 = Cc1ccc(C)c(OCCCC(C)(C)C(=O)OCC(=O)NCCCCCCCCCC(NC(=O)COC(=O)C(C)(C)CCCOc2cc(C)ccc2C)C(=O)*)c1; X2 = Cc1ccc(C)c(OCCCC(C)(C)C(=O)OCC(=O)NCCCCC(NC(=O)COC(=O)C(C)(C)CCCOc2cc(C)ccc2C)C(=O)*)c1; Glycoloyl(O-gemfibrozoyl) = Cc1ccc(C)c(OCCCC(C)(C)C(=O)OCC(=O)*)c1; γGlu = O=C(O)[C@H](CCC(=O)[*:2])N[*:1]; ξK = NCCCCC(N)C(=O)O; Ahx = NCCCCCC(=O)O",
  "data": [
    {"substance": "H-HGEGTYTNDVTEYLEEEAAK([γGlu-X1])EFIEWLIKGKPSSGAPPSKKKKKK-OH", "values": [
      {"measurement": "K", "setting": "Albumin", "value": 12.1},
      {"measurement": "Activity", "setting": "Mus musculus [1]", "value": "inactive"},
      {"measurement": "EC50", "setting": "[2]", "value": 310, "unit": "pM"},
      {"measurement": "half-life at 1000 ng/ml", "setting": "[3]", "value": 33.9, "unit": "h"}
    ]},
    {"substance": "H-HGEGTYTNDVTEYLEEEAA[ξK]([γGlu-Ahx-Glycoloyl(O-gemfibrozoyl)])EFIEWLIKGKPSSGAPPSKKKKKK-OH", "values": [
      {"measurement": "K", "setting": "Albumin", "value": 6.4},
      {"measurement": "Activity", "setting": "Mus musculus [1]", "value": "Active"},
      {"measurement": "EC50", "setting": "[2]", "value": 53, "unit": "pM"},
      {"measurement": "half-life at 1000 ng/ml", "setting": "[3]", "value": 16.3, "unit": "h"}
    ]},
    {"substance": "H-HGEGTYTNDVTEYLEEEAA[ξK]([γGlu-X2])EFIEWLIKGKPSSGAPPSKKKKKK-OH", "values": [
      {"measurement": "Activity", "setting": "Mus musculus [4]", "value": "Active"},
      {"measurement": "K", "setting": "Albumin", "value": 11.2},
      {"measurement": "Activity", "setting": "Mus musculus [1]", "value": "Active"},
      {"measurement": "EC50", "setting": "[2]", "value": 91, "unit": "pM"},
      {"measurement": "half-life at 1000 ng/ml", "setting": "[3]", "value": 29.5, "unit": "h"}
    ]},
    {"substance": "SEMAGLUTIDE [listing 1 of 2 here]", "values": [
      {"measurement": "Activity", "setting": "[5]", "value": "Non-Toxic"},
      {"measurement": "Activity", "setting": "[6]", "value": "Non-Toxic"},
      {"measurement": "Activity", "setting": "[7]", "value": "Non-Toxic"},
      {"measurement": "Activity", "setting": "[8]", "value": "Non-Toxic"}
    ]},
    {"substance": "SEMAGLUTIDE [listing 2 of 2 here]", "values": [
      {"measurement": "Activity", "setting": "Mus musculus [9]", "value": 25.5, "unit": "%"},
      {"measurement": "Activity", "setting": "Mus musculus [10]", "value": "Active"},
      {"measurement": "Activity", "setting": "Mus musculus [11]", "value": "inactive"},
      {"measurement": "Activity", "setting": "Mus musculus [12]", "value": "Active"},
      {"measurement": "Activity", "setting": "Mus musculus [13]", "value": 52, "unit": "%"},
      {"measurement": "Activity", "setting": "Mus musculus [14]", "value": 6.7, "unit": "%"},
      {"measurement": "Activity", "setting": "Mus musculus [15]", "value": "inactive"},
      {"measurement": "Activity", "setting": "Mus musculus [16]", "value": "Active"},
      {"measurement": "Activity", "setting": "Mus musculus [17]", "value": "Active"},
      {"measurement": "Activity", "setting": "Mus musculus [18]", "value": "inactive"},
      {"measurement": "Activity", "setting": "Mus musculus [19]", "value": "Active"},
      {"measurement": "Activity", "setting": "Mus musculus [20]", "value": 13.4, "unit": "%"},
      {"measurement": "TIME", "setting": "Mus musculus [21]", "value": 1680, "unit": "h"},
      {"measurement": "Activity", "setting": "Mus musculus [22]", "value": "Active"},
      {"measurement": "Activity", "setting": "Mus musculus [23]", "value": "Active"},
      {"measurement": "Activity", "setting": "Mus musculus [24]", "value": "Active"}
    ]}
  ]
}
